Reference: patent publication US8992891B2, “Therapeutic approaches for treating CMT and related disorders” (Pharnext, priority 2007, dated 2015)

How the values were obtained:
PMP22 protein = PMP22 protein expression analysis by flow cytometry (FACS) in Schwann cells; type: cell-based, rat; parameters: key to Protein (PMP22 expression decrease): +: significantly decreases PMP22 levels compared to control; conditions: for Protein (PMP22 expression decrease): rat primary Schwann cells, FACS, 24 hrs
Protocol: One day later, Schwann cells are stimulated by combinations of drugs or drugs alone during 24 hrs (3 wells/condition). The preparation of each compound is performed just prior to its addition to the cell culture medium. Drugs are added to a defined medium composed of DMEM-F12, with 1% Insulin-Transferrin-Selenium-X (ITS, Invitrogen #51300), 16 μg/ml of Putrescine, 0.02 μg/ml of corticosterone, 10 nM Progesterone and 50 μg/ml of gentamicin. The absence of Forskolin during drug stimulation avoids adenylate cyclase saturation. 8 hrs, 24 hrs and 48 hrs after drugs incubation, supernatants are recovered, centrifuged and frozen. SC are detached with trypsin-EDTA. As soon as the majority of cells are in suspension, the trypsin is neutralised using DMEM with 10% FCS. Supernatants with cells are recovered and centrifuged. The pellets of cells are transferred in micro tubes, washed in PBS once and fixed with a specific solution (AbCys #Reagent A BUF09B). 10 minutes later, cells are rinsed once with PBS and kept at 4° C. Five days after cell fixation, all cell preparations with different incubation times are labelled using the following protocol. […] Cells are then centrifuged at 7000 rpm for 5 minutes and cell pellets are rinsed once in PBS. A secondary antibody is added, coupled to Alexa Fluor 488 (goat anti-rabbit IgG, Molecular Probes #A11008, 1/100), for one hour at room temperature. Cells are then centrifuged at 7000 rpm for 5 minutes and cell pellets are rinsed once in PBS. The labelling is increased adding a tertiary antibody coupled to Alexa Fluor 488 (chicken anti-goat IgG, Molecular Probes #A21467, 1/100) for one hour incubation, at room temperature. Cells are then rinsed once in PBS. Control without any antibody (unlabelled cells) is performed to determine the level of autofluorescence and adapted the sensitivity of the photomultiplicators. Control with both secondary and tertiary antibodies but without primary antibody, is performed to assess non specific binding of antibodies. Data acquisition and analysis are performed with a FACS Array cytometer and FACS Array software (Becton Dickinson) on 5000 cells. Forward Scatter (FSC) correlated with cell volume (size) and Side Scatter (SSC) depending on inner complexity of cells (granularity) are analysed. For expression of PMP22, analysis is performed within the total cells and percent of positive cells is calculated. Positive cells are cells with fluorescence intensity higher than the control with secondary antibody. We tested the ability of some drugs to inhibit PMP22 protein expression (FACS analysis). […] The results of the action of some individual drugs on the protein level of PMP22 are also shown on table 1 above.

[1] = tested on: hemizygous PMP22 transgenic rat (CMT rat); test: Bar test in CMT transgenic rat model; type: in vivo; conditions: CMT rats; for bar test performance compared with the placebo group: 16 weeks of treatment; for improvement of bar test motor performances versus placebo: after 8 weeks of the force-feeding; for bar test performances throughout the treatment procedure: chronic treatment
Text: Four weeks-old rats transgenic PMP22 rats have been used throughout of the study. Aspects of the study design (randomization, statistics for multiple comparisons, sample size etc.) have been checked to be in line with the recommendations provided in 4th issue of 43rd volume of ILAR Journal (2002), that provides reviews in the field of experimental design and statistics in biomedical research.
The experimental groups are formed with young rats of both genders separately. The rats are assigned to the groups following randomization schedule based on the body weight. In some experiments the randomization is based on the performances of the rats in the bar test.
Both genders are represented by separate control groups that are numerically equal or bigger than the treatment groups.
The animals are weighted twice a week in order to adjust the doses to growing body weight. If the osmotic pump is chosen for the treatment administration, the doses of the drug are calculated on the basis of the estimated mean body weight of the animals expected for their age over the period of the pump duration (6 weeks). The pumps are re-implanted if necessary, with the appropriated aesthesia protocol.
Each three or four weeks the animals are subjected to a behavioural test. Each test is conducted be the same investigator in the same room and at the same time of the day; this homogeneity is maintained throughout entire experiment. All treatments are blinded for the investigator. “Bar test” and “Grip strength” has been mainly used to access the performance throughout study. The schedule of the bar test may change as the animal growth (in order to avoid the bias due to the learning, for example).
The Bar Test evaluates rats' ability to hold on a fix rod. […] The rat is placed on its four paws on the middle of the rod (diameter: 2.5 cm; length: 50 cm; 30 cm above the table). Trials are performed consecutively; the number and the duration of trials in our experiments have been depending on batches of the animals. This variability in the testing have been introduced in order to determine the schedule appropriated to the best detection of the motor deficiency in the CMT rats in the course of the experiments.
Performance indices are recorded on each session: • The number of trials needed to hold for 60 sec (or 30 sec for batch 1, session 1 and 2) on the rod. • The time spent on the bar (i.e. the fall latency) in each trial and the average on the session. In the experimental procedures where the session ends after the rat has stayed for a cut-off time, i.e. 30 or 60 s, on the bar, a performance of the cut-off time (30 s or 60 s) is assigned to trials not completed (eg: for batch 8, for an animal which stays on the bar less than 10 sec on trials 1, 2 and 3, then for 60 sec on trials 4 and 5, 60 s is assigned to trials 6 to 10). • The number of falls.

[2] = tested on: hemizygous PMP22 transgenic rat (CMT rat); test: Morphometrical analysis of hindlimb tissues and body weight in CMT rats; conditions: CMT female rats, end of study, versus control WT rats

Row | SMILES | Protein (PMP22 expression decrease) (PMP22 protein) | first dose shown to be active, as fraction of the dose equivalent to dosage used in human for the canonical indications [1] | bar test performance compared with the placebo group [1] | improvement of bar test motor performances versus placebo [1] | bar test performances throughout the treatment procedure [1] | deficiencies of sciatic nerve and soleus muscle masses [2] | PMP22 protein expression, in words (PMP22 protein; Schwann cells in vitro, 24 hrs of incubation, compared to untreated controls)
1 | Cn1cc[nH]c1=S [Methimazole] | + | one fourth | significantly more performing | statistically significant | improved bar test performances | completely corrected | –
2 | CC[C@@H]1C(=O)OC[C@@H]1Cc1cncn1C [Pilocarpine] | + | one half | significantly more performing | statistically significant | improved bar test performances | – | decreases expression of the PMP22 protein
